# Test results taken from patent US7723058B2, “Test system for the determination of in-vivo active hemostasis proteases in biological fluids and/or the usage thereof to determine the in-vivo activation of hemostasis” (priority 2001, dated 2010).
# Where a SMILES comes first, the peptide text is derived from it. [ ]: non-standard residue; d: D form. The star is where a group is joined. dChg = N[C@@H](C(=O)O)C1CCCCC1; pNA = O=[N+]([O-])c1ccc(N*)cc1
# Assays:
# Format in all cases: biochemical
# bovine thrombin = molecular target: T1, bovine thrombin (Bos taurus, UniProt P00735); test: Determination of the Km-value for thrombin in plasma; settings: thrombin in plasma after addition of 120 mlU/ml thrombin; 37° C.; read-out: substrate concentration at halfmaximal velocity (Km-value)
# T1 construct: activity of thrombin in plasma after addition of 120 mlU/ml thrombin (F IIa); purchased DadeBehring
# Protocol: 1. Normal EDTA-plasma with 250 mM arginine, pH 8.7, and 2. normal EDTA-plasma, supplemented with 120 mlU/ml bovine thrombin and 30 min thereafter with 250 mM arginine, pH 8.7, were incubated with 50 μl HD-CHG-Ala-Arg-pNA (0-6.67 mM final) in aqua dest, Delta A/3 h (37° C.) was measured and the value of 1. was subtracted from the value of 2. The resulting difference corresponds to the activity of thrombin in plasma after addition of 120 mlU/ml thrombin (F IIa). Result the maximal enzyme velocity is 800 mA/3 h the substrate concentration at halfmaximal velocity (Km-value) is 0.3 mM.
# normal plasma = test: Inhibition of the 1-step CPC by arginine; settings: plasmatic concentrations of arginine above 100 mM
# Protocol: The CPC-test was performed in the 1-step mode as follows: 100 μl normal plasma, containing increasing concentrations of arginine (0-300 mM), pH 8.7 were incubated with 50 μl 1.7 mM HD-CHG-Ala-Arg-pNA in aqua dest. and 50 μl Pathromtin SL®, The increase in absorbance/t (t=0-10 min RT) was determined. Result: at plasmatic concentrations of arginine above 100 mM the Pathromtin SL®-CPC is decreased to 0% (compared to a normal plasma without arginine=100%),
# normal plasma (citrated) = test: Optimization of the test concentration of contact phase activator in the CPC
# Protocol: To optimize the contact phase activator in the CPC 100 μl • a) Neothromtin® (0.6 g/l ellagic acid (3 ml vial Dade Behring in 1.5 ml H2O) • b) Pathromtin® (5 g/l Kaolin, Dade Behring) • c) Pathromtin SL® (SiO2, Dade Behring) in 1:1, 1:2, 1:4, 1:8, 1:16, 1:32, 1:64, 1:128 dilution with H2O or for control 100 μl H2O were incubated with 100 μl 1.5 mmol/l HD-CHG-Ala-Arg-pNA in PBS and with 100 μl normal plasma (citrated) for 4 min (RT). The increase In extinction (405 nm)/4 min was determined.
# Control Plasma N® (CPN) = test: Comparison of different CPC-approaches; settings: CPN; approaches B) and C)
# Protocol: For n=22 citrated plasmas of patients and the Control Plasma N® (CPN) the following CPC-approaches were performed, 2-step-approaches A, B, C and 1-step-approaches D, E, F. • A) 50 μl Plasma+25 μl Pathromtin SL® (SiO2) • B) 50 μl Plasma+25 μl Pathromtin® (kaolin, in H2O twofold diluted) • C) 50 μl Plasma+25 μl Neothromtin® (ellagic acid)
# 3 min RT time of activation; +25 μl 1.7 mM HD-CHG-Ala-Arg-pNA, 750 mM arginine, 6.4 g/l EDTA, pH 8.7 • D) 50 μl Plasma+25 μl 1.7 mM CH3SO2-D-CHG-Gly-Arg-pNA • E) 50 μl Plasma+13 μl 1.5 M arginine, pH 8.7, +50 μl 1.7 mM CH3SO2-D-CHG-Gly-Arg-pNA • F) 50 μl Plasma+25 μl 1.7 mM HD-CHG-Ala-Arg-pNA in H2O+25 μl Pathromtin SL®
# Determination of delta A at 405 nm (RT). The respective changes in extinction were correlated with each other. Result: Pathromtin SL®-2-step-CPC correlated with Pathromtin SL®-1-step-CPC with r=0.798 (delta A/13 min (RT) for CPN in 2-step-CPC=354 mA; delta A/2 min (RT) for CPN-547 mA, i.e. in the 1-step-CPC a […] higher Thrombin-Like Activity is generated compared with the 2-step-CPC; the corresponding values for approaches B) and C) are approx. 30% or 20% lower, respectively. […] Thus, even in arginine-stabilized plasma the amidolytic activity against CH3SO2-D-CHG-Gly-Arg-pNA can reliably be determined, what is valid for chromogenic substrates with a CH3SO2-group.
# active trypsin = test: Detection of active trypsin in plasma, aprotinin titration, pancreatitis plasma; settings: 50 min 37° C.
# Protocol: (§1) 25 μl plasma of a pancreatitis-patient (citrated), 25 μl CPN, 25 μl 36 pkat/ml bovine Factor Xa in PBS, 0.1% Triton X 100®, were incubated with 25 μl assay buffer, containing 600 mM NaHCO3, ph 8.7 with and without 600 mM arginine, 25 μl 25 mM chloramines T®, 25 μl 3 mM N-α-Z-D-Arg-Gly-Arg-pNA 2HCl (S-2765®; Chromogenix, Mölndal, Sweden) and 25 μl Aprotinin (0, 2, 20, 200, 2000, 20000 KIU/ml) for 50 min at 37° C. and the increase in extinction at 405 nm during this incubation time was determined with a microtiterplate-photometer.
# CPN = test: Aprotinin titration in CPN; settings: 50 min 37° C.
# Protocol: as §1
# bovine Factor Xa = molecular target: T2, bovine Factor Xa (Bos taurus, UniProt P00743); test: Aprotinin on pure factor Xa; settings: 36 pkat/ml bovine Factor Xa; substrate S-2765
# T2 construct: 25 μl 36 pkat/ml bovine Factor Xa in PBS
# Protocol: as §1, with “[…],” for “25 μl plasma of a pancreatitis-patient (citrated), 25 μl CPN, 25 μl 36 pkat/ml bovine Factor Xa in PBS,”
# [1] = test system: normal EDTA-Plasma supplemented with bovine thrombin (pathoplasma); test: GACA, optimization of the concentration of substrate, pathoplasma
# Protocol: Before and after the incubation the extinction at 405 nm was determined.
# The ratio of the extinctions of pathoplasma and normal plasma approximates the value of 1 at final substrate concentrations >1.5 mM. The higher this value the more specific is the assays for pathologic activation of hemostasis, here imitated by addition of 120 mlU/ml bovine thrombin. This ratio reaches maximal values at final substrate concentrations ≦1 mM. However, the maximal change in extinction decreases at low substrate concentrations, especially at substrate concentrations below 0.3 mM, i.e. substrate exhaustion occurs. Therefore the final substrate concentration in the GACA should be between 0.3 mM and 1.0 mM, preferentially between 0.5 mM and 0.8 mM, particularly at 0.56 mM. At this final substrate concentration the assay is very specific for activation of hemostasis, and consequently the determination of CPC (approach B) can be neglected where appropriate. Thus, the GACA-value corresponds to the uGACA-value at a final substrate concentration of up to 0.8 mM, i.e. GACA=approach A (without correction is by approach B). After addition of thrombin to EDTA-plasma 90% of thrombin is inactivated, in the GACA only 10% of the added enzyme activity can be detected.
# [2] = Standardization of GACA with a pure enzyme-reagent / FEIBA; settings: pure enzyme in 500 mM arginine, 2% Hämaccel, 0.1% Triton X 100
# Protocol: The GACA was performed with 100 μl pure bovine thrombin (0-18 mlU/ml; DadeBehring), pure bovine Factor Xa (0-150 pkat/ml) or a Factor-Eight-Inhibitor-Bypassing-Activity-concentrate (0-2.6 units/ml; FEIBA®, Immuno, Wien) in 500 mM arginine, 2% Hämaccel®, 0.1% Triton X 100® (substrate here=HD-CHG-Ala-Arg-pNA. Additional samples were Control Plasma N® (CPN, DadeBehring) or CPN supplemented with FEIBA (0-2.6 units/ml). The incubation was varied from 0 to 4 h. The respective change in extinction was measured. Result: There appears a linear relationship between the thrombin- or factor Xa-concentration used and the resulting change in extinction, and also between incubation time and change in extinction. 6 mlU/ml IIa or 45 pkat/ml Xa result in a change in extinction, that corresponds to that of normal plasma (100% GACA). Thus, the GACA can be calibrated and standardized with pure thrombin- or factor Xa-reagent. CPN with 2.6 units/ml FEIBA has a GACA-value of approx. 200%, i.e. this addition of FEIBA to CPN increases the GACA-value from 100% to […].
# [3] = 25 μl 2 KIU/ml, absence of arginine
# [4] = 25 μl 2 KIU/ml, presence of arginine
# [5] = 25 μl 20 KIU/ml, absence of arginine
# [6] = 25 μl 20 KIU/ml, presence of arginine
# [7] = 25 μl 200 KIU/ml, absence of arginine
# [8] = 25 μl 200 KIU/ml, presence of arginine
# [9] = 25 μl 2000 KIU/ml, absence of arginine
# [10] = 25 μl 2000 KIU/ml, presence of arginine
# [11] = 25 μl 20000 KIU/ml, absence of arginine
# [12] = 25 μl 20000 KIU/ml, presence of arginine
# T2 sequence (P00743 234-492 limits assumed): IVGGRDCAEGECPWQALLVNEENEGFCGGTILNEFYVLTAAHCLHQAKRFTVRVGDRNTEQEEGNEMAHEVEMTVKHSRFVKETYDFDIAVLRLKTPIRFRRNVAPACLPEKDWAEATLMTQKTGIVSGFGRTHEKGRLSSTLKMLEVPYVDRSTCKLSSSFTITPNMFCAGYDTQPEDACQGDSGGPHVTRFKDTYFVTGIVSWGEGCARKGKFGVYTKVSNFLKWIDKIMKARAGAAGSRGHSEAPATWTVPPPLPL
# T2 sequence (P00743 41-180 partner limits assumed): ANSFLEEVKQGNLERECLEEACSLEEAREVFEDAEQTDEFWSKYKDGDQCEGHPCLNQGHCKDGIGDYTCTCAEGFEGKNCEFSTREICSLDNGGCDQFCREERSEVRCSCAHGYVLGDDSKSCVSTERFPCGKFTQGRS
compound,measurement,setting,value
"C[C@H](NC(=O)[C@H](N)C1CCCCC1)C(=O)N[C@@H](CCCNC(=N)N)C(=O)Nc1ccc([N+](=O)[O-])cc1 [HD-CHG-Ala-Arg-pNA, HD-CHG-Ala-Arg-pNA.2AcOH] (H-[dChg]-Ala-Arg-pNA)",Km,bovine thrombin,300 µM
N=C(N)NCCC[C@H](N)C(=O)O [arginine],Pathromtin SL®-CPC compared to a normal plasma without arginine=100%,normal plasma,0%
O=c1oc2c(O)c(O)cc3c(=O)oc4c(O)c(O)cc1c4c23 [ellagic acid],test concentration at optimal activity of protease,"normal plasma (citrated); CPC, 4 min RT",0.05 g/L
same,delta A,"normal plasma (citrated); at optimal test concentration of contact phase activator, 405 nm, RT",1443 mA/4 min
same,2-step-CPC value lower than with Pathromtin SL®,Control Plasma N® (CPN),~20%
aprotinin,increase of extinction,active trypsin; [3],733 mA
same,increase of extinction,active trypsin; [4],778 mA
same,increase of extinction,active trypsin; [5],715 mA
same,increase of extinction,active trypsin; [6],709 mA
same,increase of extinction,active trypsin; [7],531 mA
same,increase of extinction,active trypsin; [8],685 mA
same,increase of extinction,active trypsin; [9],294 mA
same,increase of extinction,active trypsin; [10],497 mA
same,increase of extinction,active trypsin; [11],103 mA
same,increase of extinction,active trypsin; [12],259 mA
same,increase in extinction in the CPN,CPN; [3],134 mA
same,increase in extinction in the CPN,CPN; [4],133 mA
same,increase in extinction in the CPN,CPN; [5],135 mA
same,increase in extinction in the CPN,CPN; [6],126 mA
same,increase in extinction in the CPN,CPN; [7],108 mA
same,increase in extinction in the CPN,CPN; [8],126 mA
same,increase in extinction in the CPN,CPN; [9],118 mA
same,increase in extinction in the CPN,CPN; [10],125 mA
same,increase in extinction in the CPN,CPN; [11],124 mA
same,increase in extinction in the CPN,CPN; [12],123 mA
same,inhibition of pure factor Xa,bovine Factor Xa,not inhibited
thrombin: pure bovine thrombin (DadeBehring),thrombin inactivated after addition to EDTA-plasma,[1],90%
same,added enzyme activity that can be detected in the GACA,[1]; after addition of thrombin to EDTA-plasma,10%
same,concentration giving a change in extinction that corresponds to normal plasma (100% GACA),[2],6 mlU/ml
